Data from ChEMBL document CHEMBL3120110, “Design, synthesis, biological evaluation, and comparative docking study of 1,2,4-triazolones as CB1 receptor selective antagonists” (Eur J Med Chem, 2014).

Assays:
Cannabinoid receptor 1 [1] = molecular target: T1, Cannabinoid receptor 1 (Homo sapiens, UniProt P21554); assay type: functional, cell-based, CHO
Cannabinoid receptor 1 [2] = molecular target: T1, Cannabinoid receptor 1; details: CHO, at 10 µM
Cannabinoid receptor 2 [3] = molecular target: T2, Cannabinoid receptor 2 (Homo sapiens, UniProt P34972); test: Antagonist activity at CB2 receptor (unknown origin) stably expressed in CHO cells co-expressing co-expressing Ga15/16 assessed as calcium current after 45 mins by fluo-4 AM assay; assay type: functional, cell-based
Cannabinoid receptor 2 [4] = molecular target: T2, Cannabinoid receptor 2; test: Antagonist activity at CB2 receptor (unknown origin) stably expressed in CHO cells co-expressing co-expressing Ga15/16 assessed as calcium current at 10 uM after 45 mins by fluo-4 AM assay relative to basal control; assay type: functional, cell-based

T2 sequence (P34972 whole entry): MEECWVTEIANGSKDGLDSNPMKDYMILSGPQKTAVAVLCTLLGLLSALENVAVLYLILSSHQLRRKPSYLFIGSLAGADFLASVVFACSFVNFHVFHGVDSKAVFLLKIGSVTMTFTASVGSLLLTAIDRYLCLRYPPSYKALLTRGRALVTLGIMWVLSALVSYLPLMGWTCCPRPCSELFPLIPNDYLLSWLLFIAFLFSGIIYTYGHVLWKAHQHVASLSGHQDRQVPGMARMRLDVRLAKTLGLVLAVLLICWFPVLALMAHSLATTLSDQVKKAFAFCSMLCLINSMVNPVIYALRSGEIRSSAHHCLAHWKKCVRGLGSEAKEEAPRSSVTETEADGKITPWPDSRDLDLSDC
T1 sequence (P21554 whole entry): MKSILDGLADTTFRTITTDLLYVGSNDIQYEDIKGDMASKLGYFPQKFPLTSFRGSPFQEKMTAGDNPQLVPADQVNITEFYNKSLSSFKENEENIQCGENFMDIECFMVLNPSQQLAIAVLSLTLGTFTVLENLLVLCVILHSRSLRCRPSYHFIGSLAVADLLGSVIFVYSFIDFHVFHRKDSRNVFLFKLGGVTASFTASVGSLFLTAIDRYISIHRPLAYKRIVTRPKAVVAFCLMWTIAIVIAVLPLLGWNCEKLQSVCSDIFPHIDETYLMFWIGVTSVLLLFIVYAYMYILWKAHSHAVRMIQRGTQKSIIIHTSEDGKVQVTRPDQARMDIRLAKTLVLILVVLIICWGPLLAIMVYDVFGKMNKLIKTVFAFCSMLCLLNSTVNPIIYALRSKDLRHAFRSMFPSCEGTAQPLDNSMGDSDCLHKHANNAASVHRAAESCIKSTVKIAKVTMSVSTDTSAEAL

Row | Structure (SMILES) | IC50 (Cannabinoid receptor 1 [1]) [nM] | inhibition (Cannabinoid receptor 1 [2]) [%] | IC50 (Cannabinoid receptor 2 [3]) [nM] | inhibition (Cannabinoid receptor 2 [4]) [%]
1 | COc1ccc(-n2c(-c3ccc(Cl)cc3)nn(C(=O)NC3CCCCC3)c2=O)cc1 | 388 | 98.6 | 1510 | 94
2 | CCCCCOc1c(OC)ccc2cc(C(=O)NCc3ccc4c(c3)OCO4)c(=O)[nH]c12 | – | 37.6 | – | 130
3 | Cc1ccc(-c2nn(C(=O)NC3CCCCC3)c(=O)n2-c2ccc(Cl)cc2)cc1 | 2100 | 98.2 | – | 58.5
4 | Cc1ccc(Cn2c(-c3ccc(Cl)cc3)nn(C(=O)Nc3ccc(C)cc3)c2=O)cc1 | – | 36.8 | – | –
5 | COc1ccc(-c2nn(C(=O)Nc3ccc(Cl)cc3)c(=O)n2-c2ccc(C)cc2)cc1 | 4730 | 90.5 | – | 43.6
6 | Cc1ccc(Cn2c(-c3ccc(C)cc3)nn(C(=O)Nc3ccc(Cl)cc3)c2=O)cc1 | 3750 | 89 | – | 29.9
7 | Cc1ccc(NC(=O)n2nc(-c3ccc(C)cc3)n(-c3ccc(Cl)cc3)c2=O)cc1 | 947 | 91.9 | – | –
8 | COc1ccc(-n2c(-c3ccc(Cl)cc3)nn(C(=O)Nc3ccc(C)cc3)c2=O)cc1 | 8440 | 74.6 | 20000 | 85.6
9 | COc1ccc(-c2nn(C(=O)NC3CCCCC3)c(=O)n2-c2ccc(C)cc2)cc1 | 1840 | 98 | 4090 | 131
10 | COc1ccc(-c2nn(C(=O)NC3CCCCC3)c(=O)n2-c2ccc(Cl)cc2)cc1 | 878 | 96.5 | 6080 | 124
11 | Cc1ccc(Cn2c(-c3ccc(Cl)cc3)nn(C(=O)NC3CCCCC3)c2=O)cc1 | – | 42.6 | 1930 | 87.7
12 | COc1ccc(-c2nn(C(=O)Nc3ccc(C)cc3)c(=O)n2-c2ccc(Cl)cc2)cc1 | 2280 | 96.6 | – | 74
13 | Cc1ccc(Cn2c(-c3ccc(C)cc3)nn(C(=O)NC3CCCCC3)c2=O)cc1 | 17800 | 60.9 | 5030 | 132
14 | Cc1ccc(-n2c(-c3ccc(Cl)cc3)nn(C(=O)NC3CCCCC3)c2=O)cc1 | 222 | 102 | – | 46.4
